Values after ≈ are worked out from the molar mass of the structure shown.
Columns and labels:
[1] = Measurement of solubility in physiological saline; format: physicochemical; settings: stirred 2 hours, filtered, HPLC
Protocol: The solubility of exemplary compounds of the present invention was measured.
The measurement was carried out using an internal standard method, and a 4-point calibration curve (4000 μM, 1000 μM, 250 μM, and 31.3 μM, or 1000 μM, 250 μM, 62.5 μM, and 7.8 μM) was prepared. A sample solution (100% DMSO) was lyophilized, and each solution was added. Then, the mixture was stirred for 2 hours, and the sample dissolved in the solution was filtered. Thereafter, the filtrate was measured by HPLC (HPLC). Physiological saline was used as a solution. Note that among the test compounds used, comparative compound 1 was the compound of Example 3-26 described in International publication No. WO06/090743 (phosphoric acid dibenzyl ester(R)-2-oxo-3-[1-oxo-3-(2-trifluoromethylphenyl)-1,2-dihydroisoquinolin-7-yl]-oxazolidin-5-ylmethyl ester). Further, the optical isomer of comparative compound 1, i.e., phosphoric acid dibenzyl ester(S)-2-oxo-3-[1-oxo-3-(2-trifluoromethylphenyl)-1,2-dihydroisoquinolin-7-yl]-oxazolidin-5-ylmethyl ester, was used as comparative compound 2. An active substance of the compound of the present invention, i.e., 7-((S)-5-hydroxymethyl-2-oxooxazolidin-3-yl)-3-(2-trifluoromethylphenyl)-2H-isoquinolin-1-one, was used as comparative compound 3. Another active substance of the compound of the present invention, i.e., 7-((R)-5-hydroxymethyl-2-oxooxazolidin-3-yl)-3-(2-trifluoromethylphenyl)-2H-isoquinolin-1-one, was used as comparative compound 4.

[2] = tested on: human colon cancer cell line HCT116; test: Measurement of antitumor effect in HCT116 tumor-bearing nude mice; format: in vivo, BALB/c nude mouse; settings: tail vein, administered twice (day 0 and day 7), HCT116 subcutaneous xenograft, vs control group 14 days after start
Protocol: The antitumor effect of exemplary compounds of the present invention was measured.
The antitumor effect was determined using tumor-bearing mice prepared by subcutaneously implanting a human colon cancer cell line HCT116 obtained from American Type Culture Collection (Virginia, the United States of America) into flank of each BALB/c nude mouse purchased from Charles River, Japan. The purchased nude mice were quarantined for 1 week, and thereafter about 5×10^6 HCT116 cells were subcutaneously implanted into flank of each mouse. The mice were subjected to the experiment at the time when their tumor grew to a size of about 200 mm^3.
Each compound was dissolved in an administration solution, and the solution was administered to the tail vein at 0.1 mL per 10 g of body weight of each mouse. Administration was carried out twice in total; on the initiation day of administration and 7 days after the initiation day. The antitumor effect was calculated as tumor growth inhibition by comparing with tumor growth in the administration solution-administered control group 14 days after the initiation day of administration.

[3] = Measurement of conversion rate in human plasma; format: in vitro ADME; settings: 37° C., 50 μM
Protocol: The conversion rate of exemplary compounds of the present invention in human plasma was measured. The measurement of conversion rate in human plasma was conducted using human plasma purchased from Rockland Immunochemicals, Inc. (Pennsylvania, the United States of America). Each compound was incubated at 37° C. for 6 hours in plasma at a concentration of 50 μM, subjected to deproteinization treatment, and then quantified by HPLC using an internal standard method. The conversion rate was calculated as a residual rate after 6 hours. Comparative compounds 1 and 2 described above were also tested as test compounds.

[4] = saline or isotonic, thermodynamic from solid

Row | Compound | solubility at 2 h [1, 4] [µM] | Residual rate (after 6 hrs., %) [3] [%] | further results
1 | O=C1O[C@H](COP(=O)([O-])[O-])CN1c1ccc2cc(-c3ccccc3C(F)(F)F)[nH]c(=O)c2c1.[Na+].[Na+] [Example 2, Mono-{(S)-2-oxo-3-[1-oxo-3-(2-trifluoromethyl-phenyl)-1,2-dihydro-isoquinolin-7-yl]-oxazolidin-5-ylmethyl}-disodium phosphate] | – | 29.4 | solubility at 2 h [1]: 3527 µM; TGI on day 14 (%) ([2]; 60 mg/kg): 85%; remained in human plasma after 6 hours (in words) [3]: almost all
2 | O=C1O[C@@H](COP(=O)(O)O)CN1c1ccc2cc(-c3ccccc3C(F)(F)F)[nH]c(=O)c2c1 [Example 6, Mono-{(R)-2-oxo-3-[1-oxo-3-(2-trifluoromethyl-phenyl)-1,2-dihydro-isoquinolin-7-yl]-oxazolidin-5-ylmethyl}-phosphoric acid] | > 4000 | – | –
3 | O=C1O[C@H](COP(=O)(O)O)CN1c1ccc2cc(-c3ccccc3C(F)(F)F)[nH]c(=O)c2c1 [Example 1, Mono-{(S)-2-oxo-3-[1-oxo-3-(2-trifluoromethyl-phenyl)-1,2-dihydro-isoquinolin-7-yl]-oxazolidin-5-ylmethyl}-phosphoric acid] | 3530 (≈ 1710 µg/mL) | 35.4 | –
4 | O=C1O[C@@H](COP(=O)(O)O)CN1c1ccc2cc(-c3ccccc3C(F)(F)F)[nH]c(=O)c2c1 [Example 7, Mono-{(R)-2-oxo-3-[1-oxo-3-(2-trifluoromethyl-phenyl)-1,2-dihydro-isoquinolin-7-yl]-oxazolidin-5-ylmethyl}-disodium phosphate] | – | 33.4 | TGI on day 14 (%) ([2]; 80 mg/kg): 30%

Now from value to compound, other results behind:

Row | solubility at 2 h [1, 4] [µM] | Compound | Residual rate (after 6 hrs., %) [3] [%] | further results
5 | 179 (≈ 72.4 µg/mL) | O=C1O[C@H](CO)CN1c1ccc2cc(-c3ccccc3C(F)(F)F)[nH]c(=O)c2c1 [Comparative compound 3, 7-((S)-5-hydroxymethyl-2-oxooxazolidin-3-yl)-3-(2-trifluoromethylphenyl)-2H-isoquinolin-1-one] | – | –
6 | < 7.8 | O=C1O[C@@H](COP(=O)(OCc2ccccc2)OCc2ccccc2)CN1c1ccc2cc(-c3ccccc3C(F)(F)F)[nH]c(=O)c2c1 [Comparative compound 1, phosphoric acid dibenzyl ester(R)-2-oxo-3-[1-oxo-3-(2-trifluoromethylphenyl)-1,2-dihydroisoquinolin-7-yl]-oxazolidin-5-ylmethyl ester, reference compound] | 99.5 | remained in human plasma after 6 hours (in words) [3]: almost all
7 | 193 (≈ 78 µg/mL) | O=C1O[C@@H](CO)CN1c1ccc2cc(-c3ccccc3C(F)(F)F)[nH]c(=O)c2c1 [Comparative compound 4, 7-((R)-5-hydroxymethyl-2-oxooxazolidin-3-yl)-3-(2-trifluoromethylphenyl)-2H-isoquinolin-1-one] | – | –
8 | < 7.8 | O=C1O[C@H](COP(=O)(OCc2ccccc2)OCc2ccccc2)CN1c1ccc2cc(-c3ccccc3C(F)(F)F)[nH]c(=O)c2c1 [Comparative compound 2, phosphoric acid dibenzyl ester(S)-2-oxo-3-[1-oxo-3-(2-trifluoromethylphenyl)-1,2-dihydroisoquinolin-7-yl]-oxazolidin-5-ylmethyl ester, reference compound] | 95.5 | –

— US8420668B2, “1-(2H)-isoquinolone derivative” (Chugai Seiyaku Kabushiki Kaisha, priority 2008, dated 2013)
